Measurements from patent US8969578B2, “Inhibitors of STAT3” (University of Central Florida Research Foundation, Inc., priority 2008, dated 2015).

System: NIH3T3/vSrc cells
Assay: WST-1 cell viability/proliferation assay, NIH3T3/vSrc
Type: cell-based, mouse
Procedure: Initial in vitro whole-cell experiments were conducted against normal mouse NIH-3T3 fibroblasts and v-src-transformed counterparts (NIH-3T3/v-src) that harbor aberrant STAT3. Inhibitor effects upon cell viability, proliferation, and cytotoxicity were assessed through WST-1, a cell proliferation reagent that measures the metabolic activity of viable cells. […] It is assumed that the predominantly hydrophobic nature of these compounds facilitated successful permeation of the cell membrane despite the phosphate.

SMILES: CC(C)C[C@H](NC(=O)[C@H](Cc1ccc(OP(=O)(O)O)cc1)NC(=O)c1ccc(C#N)cc1)C(=O)O [ISS610]
- inhibitor concentration required for suppression in whole cells: millimolar concentrations
